Measurements published in patent US11058680B2, “Combinations of opioid/TLR4 antagonists and acetaminophen for use in the treatment of emotional pain and insomnia” (Allodynic Threapeutics, LLC, priority 2016, dated 2021).

Tests used:
Format in all cases: in vivo, human
[1] = tested on: emotional pain; test: Migraine open-label pilot study: emotional pain on 4-point scale (emotional pain-free, emotional pain intensity); settings: for Emotional pain-free: 48 h; for Change in emotional pain-free / Change in emotional pain-intensity: baseline to 24 h; for Emotional pain-intensity at 24 hours post-dosing / Emotional pain-intensity at baseline: sum of severity of all patients
Method: (§1) Sixteen unique patients were enrolled in an open phase pilot study for the acute treatment of migraine attacks, insomnia, and emotional pain. Of the sixteen patients, eleven were evaluated for one migraine attack, one for two attacks, two for four attacks, one for six attacks, and one for fourteen attacks. A total of forty-one […] treatments were evaluated. Patients received a single dose of one of the following treatment options:
(§2) The majority of the patients remained in the clinic for observation for 2 hours after dosing. They completed headache diary assessments immediately before and after dosing at time points: 7, 15, and 30 minutes; and 1, 1.5, 2, 3, 6, 12, 24, and 48 hours. Headache pain was assessed on a 4-point scale (0=none; 1=mild; 2=moderate; 3=severe). The assessment of photophobia, phonophobia, nausea, and neck/shoulder pain was assessed as present or absent. The assessment of emotional pain was recorded on a 4-point scale (0=none, 1=mild, 2=moderate, 3=severe). The assessment of difficulty sleeping or falling asleep (insomnia) was assessed on a 4-point scale (0=none, 1=mild, 2=moderate, 3=severe) at baseline, for the night before treatment and for the following nights at 24, and 48 hours. Patients recorded side effects severity at each time point. Patients recorded the time of the first rescue medication dose and all additional headache medications used within 48 hours. Patients were required to stay awake to record their assessments in the first 2 hours, sleeping was permitted thereafter. While asleep, assessments were completed according to patients' best estimation. For data analysis, it was assumed that a migraine attack is a unique patient. Patients were asked to specify (yes or no answer) to whether they experienced emotional pain symptoms such as: hurt feelings, sadness, fear, or anger. Patients who replied positively to having emotional pain were asked to specify the cause into one of the following options: relationship, work/school, money/debt, health, or loss/grief.

[2] = tested on: patient with chronic migraines, lower back pain and anger with spouse; test: Example 9 case study; settings: naltrexone 5 mg twice daily for 14 months
From the text: For 30 years they and their retired spouse were always together.

[3] = tested on: insomnia; test: Migraine open-label pilot study: insomnia on 4-point scale, night before vs. night after dosing (insomnia-free, insomnia intensity); settings: for Change in insomnia-free / Change in insomnia-intensity: baseline to night after dosing; for Insomnia-intensity at baseline / Insomnia-intensity at night after dosing: sum of severity of all patients
Method: as §1, §2

[4] = tested on: patient with post herpetic neuralgia, chronic lower back pain and anger with spouse; test: Example 8 case study; settings: naltrexone 5 mg/clonidine 0.025 mg twice daily; naltrexone 5 mg twice daily; naltrexone 2.25 mg and acetaminophen 325 mg four times daily
[5] = NTX/APAP 2.25 mg/325 mg, NTX 2.25 mg
[6] = NTX/APAP 3.25 mg/325 mg, NTX 3.25 mg
[7] = night after dosing, NTX/APAP 2.25 mg/325 mg, NTX 2.25 mg
[8] = night after dosing, NTX/APAP 3.25 mg/325 mg, NTX 3.25 mg
[9] = night after dosing, NTX/APAP 5 mg/325 mg, NTX 5 mg
[10] = night after dosing, NTX/APAP […]325 mg, NTX 1.5 mg
[11] = night after dosing, naltrexone/acetaminophen 2.25 mg/325 mg (N=21), naltrexone 2.25 mg (N=9)

## O=C1CC[C@@]2(O)[C@H]3Cc4ccc(O)c5c4[C@@]2(CCN3CC2CC2)[C@H]1O5 [naltrexone]
[1]; 24 hours after dosing, naltrexone/acetaminophen 2.25 mg/325 mg (N=21), naltrexone 2.25 mg (N=9)
  emotional pain-free change from baseline: 33%
[1]; [5]
  Emotional pain-free: 9 (100)
  Change in emotional pain-free: +3 (+33) n (%)
  Change in emotional pain-intensity: −5 (−55) n (%)
  Emotional pain-free at baseline: 6 (66) n (%)
  Emotional pain-intensity at 24 hours post-dosing: 0 n (%)
  Emotional pain-intensity at baseline: 5 (55) n (%)
[1]; [6]
  Emotional pain-free: 3 (100)
  Change in emotional pain-intensity: −1 (−100) n (%)
  Emotional pain-free at baseline: 2 n (%)
  Emotional pain-intensity at 24 hours post-dosing: 0 n (%)
  Emotional pain-intensity at baseline: 1 n (%)
[1]; NTX/APAP 5 mg/325 mg, NTX 5 mg
  Emotional pain-free: 1 (100)
  Change in emotional pain-intensity: −2 (−100) n (%)
  Emotional pain-free at baseline: 0 n (%)
  Emotional pain-intensity at 24 hours post-dosing: 0 n (%)
  Emotional pain-intensity at baseline: 2 n (%)
[1]; NTX/APAP […]325 mg, NTX 1.5 mg
  Emotional pain-free: 3 (100)
  Change in emotional pain-free: +1 n (%)
  Emotional pain-free at baseline: 2 n (%)
  Emotional pain-intensity at 24 hours post-dosing: 0 n (%)
  Emotional pain-intensity at baseline: 2 n (%)
[1]; combined doses
  Emotional pain-free: 13 (100) n (%)
[2]
  lower back pain diminished by: 90%
  migraine intensity and frequency lessened by: 90%
[3]; 24 h, combined doses
  Insomnia-free: 11 (69) n (%)
[3]; 24 h time point = night following the day of initial dosing, NTX/APAP 2.25 mg/325 mg, NTX 2.25 mg
  Insomnia-free: 6 (66) n (%)
[3]; 24 h time point = night following the day of initial dosing, NTX/APAP 3.25 mg/325 mg, NTX 3.25 mg
  Insomnia-free: 2 (66) n (%)
[3]; 24 h time point = night following the day of initial dosing, NTX/APAP 5 mg/325 mg, NTX 5 mg
  Insomnia-free: 1 (100) n (%)
[3]; 24 h time point = night following the day of initial dosing, NTX/APAP […]325 mg, NTX 1.5 mg
  Insomnia-free: 2 (66) n (%)
[3]; 48 h, NTX/APAP 2.25 mg/325 mg, NTX 2.25 mg
  Insomnia-free: 8 (88) n (%)
[3]; 48 h, NTX/APAP 5 mg/325 mg, NTX 5 mg
  Insomnia-free: 1 (100) n (%)
[3]; 48 h, combined doses
  Insomnia-free: 2 (13) n (%)
[3]; [5]
  Change in insomnia-free: +2 (22) n (%)
  Change in insomnia-intensity: −10 (−111) n (%)
  Insomnia-free at baseline: 4 (44) n (%)
  Insomnia-intensity at baseline: 14 (155) n (%)
[3]; [6]
  Change in insomnia-free: +1 n (%)
  Change in insomnia-intensity: −1 (−50) n (%)
  Insomnia-free at baseline: 1 n (%)
  Insomnia-intensity at baseline: 2 n (%)
[3]; NTX/APAP 5 mg/325 mg, NTX 5 mg
  Change in insomnia-free: 0 n (%)
  Change in insomnia-intensity: +2 (+200) n (%)
  Insomnia-free at baseline: 0 n (%)
  Insomnia-intensity at baseline: 1 n (%)
[3]; NTX/APAP […]325 mg, NTX 1.5 mg
  Change in insomnia-free: 0 n (%)
  Change in insomnia-intensity: −2 (−66) n (%)
  Insomnia-free at baseline: 2 n (%)
  Insomnia-intensity at baseline: 3 n (%)
[3]; [7]
  Insomnia-free at night after dosing: 6 (66) n (%)
  Insomnia-intensity at night after dosing: 4 (44) n (%)
[3]; [8]
  Insomnia-free at night after dosing: 2 (66) n (%)
  Insomnia-intensity at night after dosing: 1 n (%)
[3]; [9]
  Insomnia-free at night after dosing: 0 n (%)
  Insomnia-intensity at night after dosing: 3 n (%)
[3]; [10]
  Insomnia-free at night after dosing: 2 n (%)
  Insomnia-intensity at night after dosing: 1 n (%)
[3]; [11]
  insomnia intensity change from baseline: −111%
  insomnia-free change from baseline: 22%
[3]; night before vs. night after treatment, naltrexone 2.25 mg (n=9)
  insomnia intensity improved by: 111%
[4]
  mean average pain intensity: 1.5 /10
